Each block holds one compound with its values, some of them ahead of it.
Legend:
[1] = biological target: T1, LipT (uncultured bacterium, UniProt K7QE48); test: spectrophotometric 4-nitrophenol release at […] nm; assay type: biochemical; details: 75°C, 0.1 M potassium phosphate pH 8.0
T1 construct: full ORF of 331 residues incl. predicted signal peptide (cleavage Ala21/Val22), C-terminal His6 (pET21a), E. coli BL21(DE3), Ni-NTA; about 36 kDa monomer, multimer (at least dimer)

[2] = biological target: T2, LipS (Symbiobacterium thermophilum, UniProt Q67MR3); test: pNP-decanoate hydrolysis, spectrophotometric at […] nm; assay type: biochemical; details: pNP-decanoate as substrate, 5 min preincubation, 70°C, 10 min
T2 construct: gene STH2045; full-length, 280 residues, C-terminal His6 (pET21a), E. coli BL21(DE3), Ni-NTA; dimer by SEC

[3] = tested on: T3, LipS-WT (uncultured bacterium); test: X-ray crystal structure, […] Å; assay type: binding; details: active site next to S126 and H257, contact to D187; spermidine was added as crystallisation additive, residual density interpreted as spermidine; PDB code assigned by order of listing
T3 construct: crystallization construct LipS-WT with native N-terminus (disordered to about residue 35); space group P4, 4 molecules per asymmetric unit; dimer

[4] = biological target: LipS with His6-tag at the C-terminus (LipS-H6) (metagenome-derived (100% identity to Symbiobacterium thermophilum)); test: SEC; size exclusion chromatography during purification of LipS for crystallization; conditions not told (ref. 67)
[5] = biological target: LipT (metagenome-derived (97% identity to Thermus scotoductus)); test: SDS-PAGE after incomplete heat denaturation; 15% SDS-PAGE of purified LipT after 5 min at 95°C, Coomassie staining
[6] = biological target: wild-type LipS (LipS-WT) (metagenome-derived (100% identity to Symbiobacterium thermophilum)); test: SEC; size exclusion chromatography during purification of LipS for crystallization; conditions not told (ref. 67)

T1 sequence (K7QE48 1-328 limits assumed): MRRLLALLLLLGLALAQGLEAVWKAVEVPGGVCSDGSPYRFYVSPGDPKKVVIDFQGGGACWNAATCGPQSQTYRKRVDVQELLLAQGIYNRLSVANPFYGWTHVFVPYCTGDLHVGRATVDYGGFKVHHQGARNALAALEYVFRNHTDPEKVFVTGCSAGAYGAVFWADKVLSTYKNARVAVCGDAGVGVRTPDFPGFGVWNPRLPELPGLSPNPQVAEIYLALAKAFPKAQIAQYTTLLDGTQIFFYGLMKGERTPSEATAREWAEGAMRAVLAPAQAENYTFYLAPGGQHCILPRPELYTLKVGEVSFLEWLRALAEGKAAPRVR
T2 sequence (Q67MR3 entry or part of it): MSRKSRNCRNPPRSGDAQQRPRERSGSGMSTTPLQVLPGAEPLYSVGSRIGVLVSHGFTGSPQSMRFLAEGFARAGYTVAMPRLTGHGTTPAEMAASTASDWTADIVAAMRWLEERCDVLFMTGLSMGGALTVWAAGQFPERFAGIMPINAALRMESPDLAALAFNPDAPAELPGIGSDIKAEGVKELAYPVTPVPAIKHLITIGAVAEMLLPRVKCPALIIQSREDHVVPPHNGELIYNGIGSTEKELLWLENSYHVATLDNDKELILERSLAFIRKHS

Compound: NCCCCNCCCN [spermidine]
inhibition at 3 and 5 mM [2]: shown to inhibit the activity of LipS with its substrate pNP-decanoate | X-ray crystal structure, 1.99 Å [3]: Spermidine was used as an additive to improve crystal quality

Compound: LipT (enzyme)
stoichiometry N [5]: > 2

The next lines start with the values.

Km (mol l^-1) [1]: 1.1 • 10^−3 mol l^−1
Compound: CCCCCCCCCC(=O)Oc1ccc([N+](=O)[O-])cc1 [4-nitrophenol-decanoate (C10)]

stoichiometry N [4]: 2
Compound: LipS with His6-tag at the C-terminus (LipS-H6) (enzyme)

stoichiometry N [6]: 2
Compound: wild-type LipS (LipS-WT) (enzyme)

Reference: article PMC3480424, “The Metagenome-Derived Enzymes LipS and LipT Increase the Diversity of Known Lipases” (PLoS ONE, 2012)
